According to US9073967B2, “High salt-resistance antibacterial peptide and method for producing the same” (NATIONAL TSING HUA UNIVERSITY, priority 2011, dated 2015):
Values after ≈ are worked out from the molar mass of the structure shown. “Also recorded” adds a separate entry of the source. Where a SMILES comes first, the peptide text is derived from it. [ ]: non-standard residue; d: D form. 2Nal = N[C@@H](Cc1ccc2ccccc2c1)C(=O)O

How the values were obtained:
[1] = test system: P. arugenosa ATCC 27853; test: Antibacterial ability in different MgCl2 concentration; type: cell-based
[2] = test system: S. aureus ATCC 19636; test: Antibacterial ability in different salt (NaCl) concentration, LYM medium
Procedure: (§4) All bacteria strains of above microbes were cultured in LYM medium. […] The NaCl concentrations in LYM were divided into four groups of 50 mM, 100 mM, 200 mM, 300 mM and the microbes were cultured in the four group of LYM and diluted to a 10^4 CFU/ml bacterial solution. Then added 100 μl of the bacterial solution into 96-well culture dish and added different concentration of antibacterial peptides P113, Phe-P113, Nal-P113 or Bip-P113 to evaluate the antibacterial ability in 50 mM, 100 mM, 200 mM, 300 mM concentration of NaCl. (Note: In addition to NaCl, the LYM medium also contains 5.4 mM KCl, 5.6 mM Na2HPO4, 0.5 mM MgSO4, and 1.0 mM sodium citrate. Besides, 0.4 mg of ZnCl2, 2.0 mg of FeCl3.6H2O, 0.1 mg of CuSO4.5H2O, 0.1 mg of MnSO4.H2O, 0.1 mg of Na2B4O7.10H2O, 700 mg of amino acid mixtures without tryptophan (Clontech), and 20 mg of L-Tryptophan were added per liter of medium. Then added moderate amount of glucose, amino acid, and vitamins mixture from the RPM1-1640 Select-Amine Kit)

[3] = test system: S. aureus ATCC 29213; test: Antibacterial ability in different MgCl2 concentration; type: cell-based
[4] = test system: C. tropicalis ATCC 13803 YLO86
[5] = test system: P. arugenosa ATCC 9027; test: Antibacterial ability in different salt (NaCl) concentration, LYM medium
Procedure: as §4

[6] = test system: S. aureus ATCC 25923; test: as above
Procedure: as §4

[7] = test system: Pseudomonas aeruginosa strains ATCC 27853; test: Antibacterial activity assay, NCCLS microdilution MIC in MHB; type: cell-based
Source text: (§1) For testing the antibacterial ability of Phe-P113, Nal-P113 and Bip-P113 in different salt concentration, we use Antibacterial activity assay to perform the test. Three bacteria strains are used: Eschericha coli strains (ATCC 25922), Staphylococcus aureus strains (ATCC 25923, 29213 and 19636, methicillin-resistant) and Pseudomonas aeruginosa strains (ATCC 27853 and 9027, ampicillin-resistant).
(§2) The microdilution method of National Committee for Clinical Laboratory Standards (NCCLS) is used to evaluate ‘The minimal inhibition concentration (MIC)’. The minimum concentration that can inhibit 90% or more microbes is the ‘minimal inhibition concentration’.
(§3) In the microdilution method, the 1 μl peptide solution (The concentration is between the range of 5000 μg/ml to 78.1 μg/ml) and the 99 μl inoculums (5×10^5 CFU/ml) is mixed incubated in 96-well culture dish coated with polyethylene under 37° C. for 16 hr. Then evaluated the turbidity in O.D.600 by ELISA plate reader (Thermo Max, Molecular Devices, Sunnyvale, Calif.). Take the Muller-Hinton Broth (MHB) and inoculums suspension with adding peptides as negative and positive control group relatively. The result of MIC is the minimum concentration of peptides that can inhibit the bacteria growth (equal to or more than 90%).

[8] = test system: Staphylococcus aureus strains ATCC 19636; test: as above; type: cell-based
Source text: as §1, §2, §3

[9] = test system: Staphylococcus aureus strains ATCC 29213; test: as above; type: cell-based
Source text: as §1, §2, §3

[10] = test system: Eschericha coli strains ATCC 25922; test: as above; type: cell-based
Source text: as §1, §2, §3

[11] = test system: Pseudomonas aeruginosa strains ATTC 9027; test: as above; type: cell-based
Source text: as §1, §2, §3

[12] = test system: Staphylococcus aureus strains ATCC 25923; test: as above; type: cell-based
Source text: as §1, §2, §3

[13] = test system: P. arugenosa ATCC 27853; test: Antibacterial ability in different salt (NaCl) concentration, LYM medium
Procedure: as §4

[14] = test system: S. aureus ATCC 29213; test: as above
Procedure: as §4

[15] = test system: P. arugenosa ATCC 9027; test: Antibacterial ability in different MgCl2 concentration; type: cell-based
[16] = test system: S. aureus ATCC 25923; test: as above; type: cell-based
[17] = test system: Bacteria strains; test: Antibacterial ability in different salt concentration, overall statement; settings: different concentration of NaCl / salt
Procedure: as §4

[18] = test system: E. coli ATCC 25922; test: Antibacterial ability in different MgCl2 concentration; type: cell-based
[19] = test system: E. coli ATCC 25922; test: Antibacterial ability in different salt (NaCl) concentration, LYM medium
Procedure: as §4

[20] = test system: S. aureus ATCC 19636; test: Antibacterial ability in different MgCl2 concentration; type: cell-based

C[C@H](N)C(=O)N[C@@H](CCCCN)C(=O)N[C@@H](CCCNC(=N)N)C(=O)N[C@@H](Cc1ccc2ccccc2c1)C(=O)N[C@@H](Cc1ccc2ccccc2c1)C(=O)NCC(=O)N[C@@H](Cc1ccc(O)cc1)C(=O)N[C@@H](CCCCN)C(=O)N[C@@H](CCCNC(=N)N)C(=O)N[C@@H](CCCCN)C(=O)N[C@@H](Cc1ccccc1)C(=O)N[C@@H](Cc1ccc2ccccc2c1)C(N)=O [Nal-P113] (H-AKR[2Nal][2Nal]GYKRKF[2Nal]-NH2; N-terminus and C-terminus assumed)
antibacterial ability (MIC) ([1]; Control group): 1.56 µg/mL | antibacterial ability (MIC) ([1]; MgCl2 0.5 mM): 3.12 µg/mL | antibacterial ability (MIC) ([1]; MgCl2 1.5 mM): 3.21 µg/mL | antibacterial ability (MIC) ([1]; MgCl2 2.5 mM): 6.25 µg/mL | antibacterial ability (MIC) ([2]; NaCl 50 mM): 12.5 | antibacterial ability (MIC) ([2]; NaCl 100 mM): 25 | antibacterial ability (MIC) ([2]; NaCl 200 mM): 50 | antibacterial ability (MIC) ([2]; NaCl 300 mM): 50 | antibacterial ability (MIC) ([3]; Control group): 1.56 µg/mL | antibacterial ability (MIC) ([3]; MgCl2 0.5 mM): 1.56 µg/mL | antibacterial ability (MIC) ([3]; MgCl2 1.5 mM): 1.56 µg/mL | antibacterial ability (MIC) ([3]; MgCl2 2.5 mM): 1.56 µg/mL | MIC [4]: 6.25 µg/mL (≈ 3.58 µM) | antibacterial ability (MIC) ([5]; NaCl 50 mM): 6.25 | antibacterial ability (MIC) ([5]; NaCl 100 mM): 50 | antibacterial ability (MIC) ([5]; NaCl 200 mM): 50 | antibacterial ability (MIC) ([5]; NaCl 300 mM): >50 | antibacterial ability (MIC) ([6]; NaCl 50 mM): 1.56 | antibacterial ability (MIC) ([6]; NaCl 100 mM): 3.125 | antibacterial ability (MIC) ([6]; NaCl 200 mM): 12.5 | antibacterial ability (MIC) ([6]; NaCl 300 mM): 50 | minimal inhibition concentration (MIC) [7]: 50 | minimal inhibition concentration (MIC) [8]: 6.25 | minimal inhibition concentration (MIC) [9]: 6.25 | minimal inhibition concentration (MIC) [10]: 12.5 | minimal inhibition concentration (MIC) [11]: 50 | minimal inhibition concentration (MIC) [12]: 6.25 | antibacterial ability (MIC) ([13]; NaCl 50 mM): 1.56 | antibacterial ability (MIC) ([13]; NaCl 100 mM): 12.5 | antibacterial ability (MIC) ([13]; NaCl 200 mM): 50 | antibacterial ability (MIC) ([13]; NaCl 300 mM): >50 | antibacterial ability (MIC) ([14]; NaCl 50 mM): 1.56 | antibacterial ability (MIC) ([14]; NaCl 100 mM): 3.125 | antibacterial ability (MIC) ([14]; NaCl 200 mM): 6.25 | antibacterial ability (MIC) ([14]; NaCl 300 mM): 25 | antibacterial ability (MIC) ([15]; Control group): 3.12 µg/mL | antibacterial ability (MIC) ([15]; MgCl2 0.5 mM): 6.25 µg/mL | antibacterial ability (MIC) ([15]; MgCl2 1.5 mM): 6.25 µg/mL | antibacterial ability (MIC) ([15]; MgCl2 2.5 mM): 12.5 µg/mL | antibacterial ability (MIC) ([16]; Control group): 1.56 µg/mL | antibacterial ability (MIC) ([16]; MgCl2 0.5 mM): 3.12 µg/mL | antibacterial ability (MIC) ([16]; MgCl2 1.5 mM): 3.12 µg/mL | antibacterial ability (MIC) ([16]; MgCl2 2.5 mM): 3.12 µg/mL | antibacterial ability in different concentration of salt (in words) [17]: better than P-113; also recorded: remains their activity of antibacterial | antibacterial ability (MIC) ([18]; Control group): 3.12 µg/mL | antibacterial ability (MIC) ([18]; MgCl2 0.5 mM): 3.12 µg/mL | antibacterial ability (MIC) ([18]; MgCl2 1.5 mM): 6.25 µg/mL | antibacterial ability (MIC) ([18]; MgCl2 2.5 mM): 12.5 µg/mL | antibacterial ability (MIC) ([19]; NaCl 50 mM): 3.125 | antibacterial ability (MIC) ([19]; NaCl 100 mM): 12.5 | antibacterial ability (MIC) ([19]; NaCl 200 mM): 25 | antibacterial ability (MIC) ([19]; NaCl 300 mM): 50 | antibacterial ability (MIC) ([20]; Control group): 6.25 µg/mL | antibacterial ability (MIC) ([20]; MgCl2 0.5 mM): 12.5 µg/mL | antibacterial ability (MIC) ([20]; MgCl2 1.5 mM): 12.5 µg/mL | antibacterial ability (MIC) ([20]; MgCl2 2.5 mM): 25 µg/mL
